# Columns and labels:
# [1] = Stability in cell culture media (Example 18); details: for Media (5 μM) % Remaining 1 h (37° C.)*: sum of both peaks
# Protocol: 98 μL of DMEM+10% FBS, +1% P/S, +1.5 g/L sodium bicarbonate cell culture media was mixed with 2 μL of DMSO and aliquotted into 96-well plates at 250 μL per 0, 1, 2, and 18 hour time point.
# 3×50 μL media samples in 96 were held in 96-well plates at −80° C. until the last time point was extracted. 200 μL of methanol containing IS was added and mixed by vortex at 1500 rpm for 1.5 minutes at room temperature. The samples were centrifuged at 4400 rpm for 10 minutes at 8° C.
# HER2 [2] = test: HER2 degradation in BT-474 cells (Example 3, Methods 1 and 2); type: cell-based, human
# Excerpt: This example illustrates how a HER2 degradation assay may be used as a test to determine and select Hsp90-targeting moieties suitable for use in SDC-TRAPs of the invention, and further illustrates the ability of SDC-TRAPs to target cells preferentially expressing Hsp90. Such a test may further be used to determine the Hsp90 binding ability of SDC-TRAPs of the invention, as well as through competitive binding assays and cell-based Hsp90 client protein degradation assays known in the art.
# After treatment, each cytoplasmic sample is prepared from 1×10^6 cells by incubation of cell lysis buffer (#9803, Cell Signaling Technology) on ice for 10 minutes. The resulting supernatant used as the cytosol fractions is dissolved with sample buffer for SDS-PAGE and run on a SDS-PAGE gel, blotted onto a nitrocellulose membrane by using semi-dry transfer. Non-specific binding to nitrocellulose is blocked with 5% skim milk in TBS with 0.5% Tween at room temperature for 1 hour, then probed with anti-HER2/ErB2 mAb (rabbit IgG, #2242, Cell Signaling) and anti-Tubulin (T9026, Sigma) as housekeeping control protein. HRP-conjugated goat anti-rabbit IgG (H+L) and HRP-conjugated horse anti-mouse IgG (H+L) are used as secondary Ab (#7074#7076, Cell Signaling) and LumiGLO reagent, 20× Peroxide (#7003, Cell Signaling) is used for visualization. The Hsp90 client protein HER2 is degraded when cells are treated with Hsp90-targeting moieties or SDC-TRAPs of the invention.
# BT-474 cells are plated in the interior 60 wells of a 96 well black clear bottom plate (20,000 cells/well) in DMEM medium, with DMEM media in the surrounding 36 wells, and incubated at 37° C. with 5% CO2 overnight. On the second day, concentration response curve source plates are produced (10 point, 3-fold dilution of compounds in DMSO) followed by a 1:30 dilution in an intermediate dilution plate containing DMEM. Compound is transferred from the intermediate plate to the cell plate at a dilution of 1:10. The cells are then incubated at 37° C. with 5% CO2 for 24 hours.
# Cells are then fixed in 4% phosphate-buffered paraformaldehyde for 30 minutes at room temperature and then permeabilized by washing five times with 0.1% Triton X-100 in PBS for 5 minutes at room temperature on a shaker. […] Cells are washed five times with 0.1% Tween-20 in PBS for 5 minutes at room temperature on a shaker and incubated with fluorescently-labeled secondary antibody (LI-COR, #926-32211) diluted 1:1000 in blocking buffer, and DRAQ5 nuclear stain (Biostatus Limited, # DRAQ5) diluted 1:10,000, at room temperature on a shaker for 1 hour. Cells are washed 5 times with 0.1% Tween-20 in PBS for 5 minutes at room temperature on a shaker and imaged on a LI-COR Odyssey imaging station. The raw data is normalized to DRAQ5 and the HER2 EC50 is calculated using XLfit™.
# HER2 [3] = test: HER2 degradation assay with BT-474 cell line (Example 12, FACS); type: cell-based, human
# [4] = Mouse plasma stability protocol, up to 1 h (Examples 16-18); details: for % Remaining (1 h): % Remaining of parent after 1 h incubation in mouse plasma at 37° C. (10 μM); for % Remaining (1 h, 37° C.) / Mouse (10 μM) % Remaining 1 h (37° C.)*: mouse plasma; for Mouse (10 μM) % Remaining 1 h (37° C.)*: sum of both peaks; for Peak Area Ratio: SDC-TRAP-0063 incubated in mouse plasma
# [5] = Metabolite profiling and identification; type: in vitro ADME; parameters: key: —: Not detected; details: for Metabolite Glucuronidation: M+1 569.3; for Metabolite Hydroxylation + glucuronidatiom: M+1 585.3
# Excerpt: Metabolite Profiling and Identification: Metabolite profiling/identification for SDC-TRAP-0063 (M+1:880.3)
# [6] = Artificial membrane permeability assay (PAMPA)
# Protocol: Pre-coated PAMPA plates were warmed to room temperature for at least 30 minutes prior to adding assay components.
# Stock solutions were prepared with the SDC-TRAP molecules to be tested. In order to make a working solution, either 50 μL of 100 μM Stock in DMSO+950 μL of PBS or 50 μL of 200 μM stock was added to 96 deep well plate, resulting in a 5 μM final concentration or a 10 μM final concentration, respectively. 3000 μL of the working solution containing each compound to be tested was added to the appropriate well of a donor PAMPA plate. 200 μL of PBS was added into the corresponding wells of an acceptor PAMPA plates.
# The acceptor plate was lowered onto the donor plate and allowed to incubate for five hours. After five hours, a 50 μL aliquot was removed from each well of each plate and added into a new 96 deep-well plate.
# 100 μL of methanol containing an internal standard was added to each aliquot and analyzed by LC/MS.
# In order to calculate the permeability for each SDC-TRAP molecule and the control molecules, the following formula was used:
# [7] = mouse, in vivo
# [8] = test system: human breast cancer cell line BT-474; test: Cytotoxicity assay (CellTiter-Glo, 72 h), BT-474; type: cell-based; details: BT-474, 72 hours, read-out: Cytotoxicity (IC50, nM) BT-474
# Protocol: (§1) Cytotoxicity of SDC-TRAP molecules was determined in three cancer cell lines. […] 80 μL of CellTiter-Glo was added to each well, followed by room temperature incubation in the dark for 15 minutes. Cell was determined by luminescence. IC50 was calculated using XLfit™ software.
# [9] = test system: human urinary bladder cancer cell line SW780; test: Cytotoxicity assay (CellTiter-Glo, 72 h), SW780; type: cell-based; details: SW780, 72 hours, read-out: Cytotoxicity (IC50, nM) SW-780
# Protocol: as §1
# [10] = test system: human urinary bladder cancer cell line RT-112; test: Cytotoxicity assay (CellTiter-Glo, 72 h), RT-112; type: cell-based; details: RT-112, 72 hours, read-out: Cytotoxicity (IC50, nM) RT-112
# Protocol: as §1
smiles,measurement,setting,value
"CCc1c2c(nc3ccc(O)cc13)-c1cc3c(c(=O)n1C2)COC(=O)C3(CC)OC(=O)N(C)CCOCCn1ccc2cc(-n3c(O)nnc3-c3cc(C(C)C)c(O)cc3O)ccc21 (stereo not shown) [SDC-TRAP-0037, 4,11-diethyl-9-hydroxy-3,14-dioxo-3,4,12,14-tetrahydro-1H-pyrano[3′,4′:6,7]indolizino[1,2-b]quinolin-4-yl (2-(2-(5-(3-(2,4-dihydroxy-5-isopropylphenyl)-5-hydroxy-4H-1,2,4-triazol-4-yl)-1H-indol-1-yl)ethoxy)ethyl)(methyl)carbamate]",Media (5 μM) % Remaining 19 h (37° C.),[1],6%
same,Media (5 μM) % Remaining 1 h (37° C.)*,[1],67%
same,IC50,HER2 [2],2110 nM
same,IC50,HER2 [3],2110 nM
same,% Remaining (1 h),[4],95.3%
same,"% Remaining (1 h, 37° C.)",[4]; 1 h,95%
same,Mouse (10 μM) % Remaining 1 h (37° C.)*,[4],95%
"CCc1c2c(nc3ccc(O)cc13)-c1cc3c(c(=O)n1C2)COC(=O)C3(CC)OC(=O)N(C)CCn1ccc2cc(-n3c(O)nnc3-c3cc(C(C)C)c(O)cc3O)ccc21 (stereo not shown) [SDC-TRAP-0038, 4,11-diethyl-9-hydroxy-3,14-dioxo-3,4,12,14-tetrahydro-1H-pyrano[3′,4′:6,7]indolizino[1,2-b]quinolin-4-yl (2-(5-(3-(2,4-dihydroxy-5-isopropylphenyl)-5-hydroxy-4H-1,2,4-triazol-4-yl)-1H-indol-1-yl)ethyl)(methyl)carbamate]",IC50,HER2 [2],> 5000 nM
same,IC50,HER2 [3],> 5000 nM
"CC(C)c1cc(-c2nnc(O)n2-c2ccc3c(ccn3CCN(C)C(=O)CCCc3nc4cc(N(CCCl)CCCl)ccc4n3C)c2)c(O)cc1O [SDC-TRAP-0039, (5-(bis(2-chloroethyl)amino)-1-methyl-1H-benzo[d]imidazol-2-yl)-N-(2-(5-(3-(2,4-dihydroxy-5-isopropylphenyl)-5-hydroxy-4H-1,2,4-triazol-4-yl)-1H-indol-1-yl)ethyl)-N-methylbutanamide]",IC50,HER2 [2],2940 nM
same,IC50,"HER2 [3]; BT-474 cells, overnight",2920 nM
"CC(C)c1cc(-c2nnc(O)n2-c2ccc3c(ccn3CCOCCN(C)C(=O)CCCc3nc4cc(N(CCCl)CCCl)ccc4n3C)c2)c(O)cc1O [SDC-TRAP-0040, 4-(5-(bis(2-chloroethyl)amino)-1-methyl-1H-benzo[d]imidazol-2-yl)-N-(2-(2-(5-(3-(2,4-dihydroxy-5-isopropylphenyl)-5-hydroxy-4H-1,2,4-triazol-4-yl)-1H-indol-1-yl)ethoxy)ethyl)-N-methylbutanamide]",IC50,HER2 [2],4740 nM
same,IC50,"HER2 [3]; BT-474 cells, overnight",4740 nM
"CCc1c2c(nc3ccc(O)cc13)-c1cc3c(c(=O)n1C2)COC(=O)C3(CC)OC(=O)CCC(=O)N1CCC(Cc2ccc(-n3c(O)nnc3-c3cc(C(C)C)c(O)cc3O)cc2)CC1 (stereo not shown) [SDC-TRAP-0042, 4,11-diethyl-9-hydroxy-3,14-dioxo-3,4,12,14-tetrahydro-1H-pyrano[3′,4′:6,7]indolizino[1,2-b]quinolin-4-yl 4-(4-(4-(3-(2,4-dihydroxy-5-isopropylphenyl)-5-hydroxy-4H-1,2,4-triazol-4-yl)benzyl)piperidin-1-yl)-4-oxobutanoate]",IC50,HER2 [2],1060 nM
same,IC50,HER2 [3],1060 nM
same,% Remaining (1 h),[4],73.9%
same,"% Remaining (1 h, 37° C.)",[4]; 1 h,74%
"CCc1c2c(nc3ccc(O)cc13)-c1cc3c(c(=O)n1C2)COC(=O)C3(CC)OC(=O)CCC(=O)N1CCN(Cc2ccc(-n3c(O)nnc3-c3cc(C(C)C)c(O)cc3O)cc2)CC1 (stereo not shown) [SDC-TRAP-0043, 4,11-diethyl-9-hydroxy-3,14-dioxo-3,4,12,14-tetrahydro-1H-pyrano[3′,4′:6,7]indolizino[1,2-b]quinolin-4-yl 4-(4-(4-(3-(2,4-dihydroxy-5-isopropylphenyl)-5-hydroxy-4H-1,2,4-triazol-4-yl)benzyl)piperazin-1-yl)-4-oxobutanoate]",IC50,HER2 [2],2140 nM
same,IC50,HER2 [3],2140 nM
"CCc1c2c(nc3ccc(OC(=O)N(C)CCCCN4CCN(Cc5ccc(-n6c(O)nnc6-c6cc(C(C)C)c(O)cc6O)cc5)CC4)cc13)-c1cc3c(c(=O)n1C2)COC(=O)C3(O)CC (stereo not shown) [SDC-TRAP-0044, 4,11-diethyl-4-hydroxy-3,14-dioxo-3,4,12,14-tetrahydro-1H-pyrano[3′,4′:6,7]indolizino[1,2-b]quinolin-9-yl (4-(4-(4-(3-(2,4-dihydroxy-5-isopropylphenyl)-5-hydroxy-4H-1,2,4-triazol-4-yl)benzyl)piperazin-1-yl)butyl)(methyl)carbamate]",Media (5 μM) % Remaining 19 h (37° C.),[1],41%
same,Media (5 μM) % Remaining 1 h (37° C.)*,[1],50%
same,IC50,HER2 [2],602 nM
same,IC50,HER2 [3],602 nM
same,% Remaining (1 h),[4],60.6%
same,"% Remaining (1 h, 37° C.)",[4]; 1 h,61%
same,Mouse (10 μM) % Remaining 1 h (37° C.)*,[4],61%
"CCc1c2c(nc3ccc(O)cc13)-c1cc3c(c(=O)n1C2)COC(=O)C3(CC)OC(=O)N1CCN(Cc2ccc(-n3c(O)nnc3-c3cc(C(C)C)c(O)cc3O)cc2)CC1 (stereo not shown) [SDC-TRAP-0047, 4,11-diethyl-9-hydroxy-3,14-dioxo-3,4,12,14-tetrahydro-1H-pyrano[3′,4′:6,7]indolizino[1,2-b]quinolin-4-yl 4-(4-(3-(2,4-dihydroxy-5-isopropylphenyl)-5-hydroxy-4H-1,2,4-triazol-4-yl)benzyl)piperazine-1-carboxylate]",IC50,HER2 [2],875 nM
same,IC50,HER2 [3],875 nM
same,% Remaining (1 h),[4],88.9%
same,"% Remaining (1 h, 37° C.)",[4]; 1 h,89%
"CCc1c2c(nc3ccc(O)cc13)-c1cc3c(c(=O)n1C2)COC(=O)[C@]3(O)CC [SN-38, reference compound]",Metabolite Glucuronidation,[5]; Hepatocytes Dog,√
same,Metabolite Hydroxylation + glucuronidatiom,[5]; Hepatocytes Dog,—
same,Metabolite Glucuronidation,[5]; Hepatocytes Human,√
same,Metabolite Hydroxylation + glucuronidatiom,[5]; Hepatocytes Human,√
same,Metabolite Glucuronidation,[5]; Hepatocytes Monkey,√
same,Metabolite Hydroxylation + glucuronidatiom,[5]; Hepatocytes Monkey,√
same,Metabolite Glucuronidation,[5]; Hepatocytes Mouse,√
same,Metabolite Hydroxylation + glucuronidatiom,[5]; Hepatocytes Mouse,—
same,Metabolite Glucuronidation,[5]; Hepatocytes Rat,√
same,Metabolite Hydroxylation + glucuronidatiom,[5]; Hepatocytes Rat,—
same,Mass Retention,"[6]; incubation 5 h, first table",38.2%
same,Mass Retention,"[6]; same protocol, second table",46.6%
same,Media (5 μM) % Remaining 19 h (37° C.),[1],52%
same,Media (5 μM) % Remaining 1 h (37° C.)*,[1],82%
same,Plasma Conc.,[7],BQL
same,Tumor Conc.,[7],BQL
same,IC50,[8],> 10000 nM
same,IC50,[9],38 nM
same,IC50,[10],< 10 nM
same,% Remaining (1 h),[4],63.5%
same,Peak Area Ratio,[4]; 0 h,0.0616
same,Peak Area Ratio,[4]; 0.5 h,4.13
same,Peak Area Ratio,[4]; 1 h,4.46
same,Peak Area Ratio,[4]; […],1.37
same,Mouse (10 μM) % Remaining 1 h (37° C.)*,[4],64%

# Source: US10828315B2 (Madrigal Pharmaceuticals, Inc., priority 2013, dated 2020)
